Assays:
purebred beagle dogs = conditions: single intra-articular dose via Capsaicin Formulation A
[1] = test system: New Zealand White rabbits; conditions: single intra-articular dose as Capsaicin Formulation A
in vivo = conditions: both sexes, New Zealand White, rabbit, rabbits, 0.3 mg trans-capsaicin as Capsaicin Formulation A, intra-articular, Day 1, combined males and females
Procedure: Animals were administered a single dose of test article (i.e., Capsaicin Formulation A, or placebo) on Day 1 via intra-articular injection into the right stifle joint. Dosing was followed by an observation period of 4 weeks. […] Prior to injection of test article, animals were sedated via gas anesthesia with sevoflurane. The gas was administered by designated technicians using a nose cone. Following anesthesia but prior to intra-articular injection, the injection site was prepared aseptically with three or more chlorhexidine scrubs, wiping with sterile water between each scrub. Animals were administered 1 mg/kg of midazolam and 0.6 mg/kg of meloxicam SR subcutaneously prior to gas anesthesia. […] The animal was monitored for pain and discomfort during recovery and was returned to its home cage after complete recovery. […] Additional pain management of animals was monitored by veterinary staff.
Assessment of toxicity was based on mortality, clinical observations (including qualitative food consumption), body weights, physical examinations, and clinical and anatomic pathology. […] Plasma samples were analyzed for capsaicin content. […] Abnormal findings or an indication of normal were recorded. Body weights were recorded twice during the pre-dose phase and on Days 1, 8, 15, and 22 of the dosing phase. […]

COc1cc(CNC(=O)CCCCC=CC(C)C)ccc1O [trans-capsaicin, N-[(4-hydroxy-3-methoxyphenyl)methyl]-8-methylnon-6-enamide]
no observed adverse effect level (NOAEL) (purebred beagle dogs): 1 mg
no observed adverse effect level (NOAEL) [1]: 0.3 mg
Cmax (in vivo): 37.9 ng/mL
AUC(0-t) (in vivo; read-out: mean AUC0-24): 27.8 ng·h/mL

Source: patent US11000490B2, “Stable aqueous capsaicin injectable formulations and medical uses thereof” (priority 2016, dated 2021)
